Where “and” joins values, the source holds several entries; their conditions need not be identical. Identical values can stand only once.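 Exposure lasted 48 hours, with cells grown in 96-well plates and compounds tested at five concentrations. GI50 marks 50% less growth. TGI: concentration producing complete growth inhibition.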

Some test systems named below: BT-549 breast; HL-60(TB) leukemia; K-562 leukemia; NCI-H23 lung; SF-295 CNS; SK-MEL-5 melanoma; COLO 205 colon; U251 CNS; SR leukemia; T-47D breast.
Common to all, as to assay: inhibition of tumour cell growth, NCI panel, 48 h

With `CC1NC(=O)C2=C1C(=O)NC(=O)C2` (centres undefined), the GI50 in the test with BT-549 breast, with HL-60(TB) leukemia, with K-562 leukemia, in the test with NCI-H23 lung, in the test on SF-295 CNS and with SK-MEL-5 melanoma was over 100 µM throughout. For the same compound, the TGI with BT-549 breast, with HL-60(TB) leukemia, with K-562 leukemia, with NCI-H23 lung, in the test on SF-295 CNS and in the test on SK-MEL-5 melanoma was over 100 µM in each case.
`Cn1c2c(c3c(Cl)nncc31)Cc1ccccc1-2`: the GI50 with BT-549 breast was 20.7 µM; in the test with COLO 205 colon, 15.3 µM; in the test with K-562 leukemia, 25.9 µM; in the test with NCI-H23 lung, 18.7 µM; with SF-295 CNS, 17.5 µM; in the test on SK-MEL-5 melanoma, 10.3 µM. The GI50 in the test on U251 CNS was 20 µM. Moreover, the TGI in the test with BT-549 breast is 64.9 µM; in the test on COLO 205 colon, 50.2 µM; with K-562 leukemia it was over 100 µM; with NCI-H23 lung, 49 µM; with SF-295 CNS it was 66.7 µM; in the test with SK-MEL-5 melanoma, 24.9 µM. The TGI with U251 CNS is over 100 µM.
For `Nc1ccccc1C(=O)CCC1C(=O)NC(=S)NC1=O`, the TGI with COLO 205 colon, in the test on HL-60(TB) leukemia, in the test on K-562 leukemia, with NCI-H23 lung, in the test with SF-295 CNS and in the test with SK-MEL-5 melanoma was over 100 µM throughout. The TGI with SR leukemia, with T-47D breast and with U251 CNS was over 100 µM throughout.
As to `Cn1c2c(c3ccccc31)CCN1C(=O)CCC21` (centres undefined), the TGI in the test with COLO 205 colon, in the test with HL-60(TB) leukemia, in the test with K-562 leukemia, with NCI-H23 lung, in the test on SF-295 CNS and with SK-MEL-5 melanoma was over 10 µM each time. Moreover, the TGI in the test on SR leukemia, in the test on T-47D breast and with U251 CNS was over 10 µM throughout.
Turning to `CCCCCCCCCC[C@H](O)[C@H](O)CC[C@@H](O)[C@H]1CC[C@@H]([C@H]2CC[C@H](CCCCCCC[C@@H](O)CC3=C[C@H](C)OC3=O)O2)O1`, the GI50 in the test with COLO 205 colon was 18 µM; with NCI-H23 lung it was 0.951 µM; with SF-295 CNS it was 0.416 µM; with SK-MEL-5 melanoma, 0.0863 µM; in the test with T-47D breast it was 4.22 µM. The TGI in the test on COLO 205 colon was 4.42 µM and 35.7 µM; in the test on HL-60(TB) leukemia it was 6.74 µM; with SF-295 CNS it was 31.9 µM; with SK-MEL-5 melanoma it was 3.46 µM and 15.9 µM; in the test with T-47D breast it was 42.8 µM; in the test with U251 CNS, over 100 µM.
Turning to `O=C(c1ccc(Cl)cc1)C(O)c1ccc(Cl)cc1` (centres undefined), the TGI is over 100 µM with BT-549 breast; over 100 µM with COLO 205 colon; 82.7 µM in the test with HL-60(TB) leukemia; over 100 µM with K-562 leukemia; over 100 µM in the test on NCI-H23 lung; over 100 µM in the test with SF-295 CNS. The TGI with SK-MEL-5 melanoma, in the test on SR leukemia and with U251 CNS was over 100 µM in each case.
Take `CC(=O)c1cc(C(=O)c2ccc3c(c2)Sc2ccccc2N3)n2ccccc12`: the GI50 is 0.00773 µM and 0.0262 µM with BT-549 breast; 0.00327 µM and 0.00332 µM in the test on COLO 205 colon; 0.00237 µM in the test with HL-60(TB) leukemia; 0.00385 µM and 0.00332 µM with K-562 leukemia; 0.00773 µM and 0.00332 µM in the test on NCI-H23 lung; 0.00284 µM with SF-295 CNS. The GI50 was 0.00526 µM and 0.00332 µM in the test on SK-MEL-5 melanoma; 0.00459 µM and 0.00332 µM with SR leukemia; 0.00492 µM and 0.00332 µM with U251 CNS. Moreover, the TGI was over 33.2 µM in the test on BT-549 breast; 0.0213 µM and 0.00993 µM in the test on COLO 205 colon; 0.0056 µM with HL-60(TB) leukemia; over 33.2 µM in the test with K-562 leukemia; over 33.2 µM with NCI-H23 lung; 0.076 µM with SF-295 CNS. The TGI is 0.818 µM and 0.742 µM in the test on SK-MEL-5 melanoma; over 33.2 µM with SR leukemia; 16.4 µM with U251 CNS.
Regarding `CCOC(=O)C(C#N)C1=CC(=O)C(=O)c2ccc(O)cc21` (centres undefined), the TGI in the test on COLO 205 colon is over 100 µM; in the test with HL-60(TB) leukemia it was over 100 µM; in the test on K-562 leukemia, over 100 µM; in the test on NCI-H23 lung it was 58 µM; in the test on SF-295 CNS, over 100 µM; in the test with SK-MEL-5 melanoma, over 100 µM. Besides, the TGI with SR leukemia, in the test with T-47D breast and in the test with U251 CNS was over 100 µM in each case.
Consider `COc1cc(C(=O)c2cnc(-c3cccc4[nH]ccc34)[nH]2)cc(OC)c1OC`, for which the TGI in the test on BT-549 breast was 22 µM; with COLO 205 colon, under 0.01 µM; in the test on HL-60(TB) leukemia, under 0.01 µM; in the test with K-562 leukemia, 42.3 µM; in the test on NCI-H23 lung, over 100 µM; in the test on SF-295 CNS, over 100 µM. Further, the TGI in the test on SK-MEL-5 melanoma was 0.431 µM and 0.275 µM; in the test with SR leukemia, over 100 µM; in the test with U251 CNS, 40 µM. Moreover, the GI50 in the test with HL-60(TB) leukemia is under 0.01 µM; in the test on K-562 leukemia, 0.0386 µM and < 0.01 µM; in the test on SF-295 CNS, under 0.01 µM; with SK-MEL-5 melanoma, 0.0462 µM and < 0.01 µM; in the test on SR leukemia, under 0.01 µM; with U251 CNS, 0.0603 µM and < 0.01 µM.
`O=C1O/C(=C/c2ccccc2)C(c2ccccc2)=C1O`: the TGI with COLO 205 colon was over 100 µM; in the test with HL-60(TB) leukemia it was 48.3 µM; in the test on K-562 leukemia, over 100 µM; in the test on NCI-H23 lung, 44.7 µM; in the test with SF-295 CNS, over 100 µM; in the test with SK-MEL-5 melanoma, 80.9 µM. Also, the TGI in the test with T-47D breast is 74.2 µM; with U251 CNS, 82.7 µM.

The record behind these values is PubChem BioAssay (NCI).
